How the values were obtained:
Test in all cases: Herbicidal effect by foliage and soil treatment
Type in all cases: in vivo
Details in all cases: 10 g ai/10a, evaluated after 14 days
[1] = tested on: common chickweed (Stellaria media)
Source text: (§1) Experiment for Determination of Herbicidal Effect by Foliate and Soil Treatment Seeds of redroot pigweed (Amaranthus retroflexus), common blackjack (Bidens pilosa), kediock (Sinapis arvensis), common chickweed (Stellaria media), sicklepod (Cassia obtusifolia), black nightshade (Solanum nigrum), velvetleaf (Abutilon theophrasti), field bindweed (Convolvulus arvensis), wild chamomile (Matricaria chamomilla), cleavers (Galium aparine) and […] (Veronica hederaefolia), were uniformly sowed over a horticultural granular soil (produced by KUREHA CHEMICAL INDUSTRY, CO., LTD.; the same soil was used hereinafter) filled in a planter. The planter was placed in a greenhouse (maintained at 19 to 25° C.) to sprout these plants. Two seedlings of each sprouted plant were transplanted to a 10 cm-diameter pot filled with the horticultural granular soil and cultivated in the greenhouse (maintained at 19 to 25° C.) until reaching a cotyledonal to bifoliate period suited to the foliage and soil treatment. […] Next, additional amounts of Tween 20 and water were added to the obtained solution or suspension to produce a test solution. The plants prepared in the above (1) were placed within a frame having a predetermined inside area, and uniformly sprayed with the test solution using a sprayer such that the amount of each compound applied was controlled to a predetermined level. The plants sprayed with the test solution were placed again in the greenhouse (maintained at 19 to 25° C.) and cultivated therein. After 14 days, the degree of growth of each plant cultivated in the treated region was compared with that of plant cultivated in non-treated region, and evaluated according to the following ratings. The herbicidal activity of each test compound was represented by these ratings

[2] = tested on: kediock (Sinapis arvensis)
Source text: as §1

[3] = tested on: sicklepod (Cassia obtusifolia)
Source text: as §1

[4] = tested on: field bindweed (Convolvulus arvensis)
Source text: as §1

[5] = tested on: ivyleafspeedwell (Veronica hederaefolia)
Source text: as §1

[6] = tested on: cleavers (Galium aparine)
Source text: as §1

[7] = tested on: common blackjack (Bidens pilosa)
Source text: as §1

[8] = tested on: black nightshade (Solanum nigrum)
Source text: as §1

[9] = tested on: velvetleaf (Abutilon theophrasti)
Source text: as §1

[10] = tested on: redroot pigweed (Amaranthus retroflexus)
Source text: as §1

[11] = tested on: wild chamomile (Matricaria chamomilla)
Source text: as §1

Row | SMILES | herbicidal activity rating, SM (Stellaria media) [1] | herbicidal activity rating, SA (Sinapis arvensis) [2] | herbicidal activity rating, CO (Cassia obtusifolia) [3] | herbicidal activity rating, CA (Convolvulus arvensis) [4] | herbicidal activity rating, VH (Veronica hederaefolia) [5] | herbicidal activity rating, GA (Galium aparine) [6] | herbicidal activity rating, BP (Bidens pilosa) [7] | herbicidal activity rating, SN (Solanum nigrum) [8] | herbicidal activity rating, AT (Abutilon theophrasti) [9] | herbicidal activity rating, AR (Amaranthus retroflexus) [10] | herbicidal activity rating, MC (Matricaria chamomilla) [11]
1 | CCCNC(=O)c1cc(OC)cc(Oc2cccc(C(F)(F)F)c2)n1 [Compound I-33, N-(n-propyl)-4-methoxy-6-{3-(trifluoromethyl)phenoxy}-2-pyridine carboxamide] | 5 (percentage of weeds killed was not less than 80%) | 5 (percentage of weeds killed was not less than 80%) | 5 (percentage of weeds killed was not less than 80%) | 4 (percentage of weeds killed was not less than 60% and less than 80%) | 5 (percentage of weeds killed was not less than 80%) | 5 (percentage of weeds killed was not less than 80%) | 5 (percentage of weeds killed was not less than 80%) | 5 (percentage of weeds killed was not less than 80%) | 5 (percentage of weeds killed was not less than 80%) | 5 (percentage of weeds killed was not less than 80%) | 5 (percentage of weeds killed was not less than 80%)
2 | CCOCNC(=O)c1cc(OC)cc(Oc2cccc(C(F)(F)F)c2)n1 [Compound I-87, N-(ethoxymethyl)-4-methoxy-6-{3-(trifluoromethyl)phenoxy}-2-pyridine carboxamide] | 5 (percentage of weeds killed was not less than 80%) | 5 (percentage of weeds killed was not less than 80%) | 5 (percentage of weeds killed was not less than 80%) | 5 (percentage of weeds killed was not less than 80%) | 5 (percentage of weeds killed was not less than 80%) | 5 (percentage of weeds killed was not less than 80%) | 5 (percentage of weeds killed was not less than 80%) | 5 (percentage of weeds killed was not less than 80%) | 5 (percentage of weeds killed was not less than 80%) | 5 (percentage of weeds killed was not less than 80%) | 5 (percentage of weeds killed was not less than 80%)
3 | CCSCCNC(=O)c1cc(OC)cc(Oc2cccc(C(F)(F)F)c2)n1 [Compound I-67, N-{2-(ethylmercapto)ethyl}-4-methoxy-6-{3-(trifluoromethyl)phenoxy}-2-pyridine carboxamide] | 4 (percentage of weeds killed was not less than 60% and less than 80%) | 5 (percentage of weeds killed was not less than 80%) | 5 (percentage of weeds killed was not less than 80%) | 5 (percentage of weeds killed was not less than 80%) | 5 (percentage of weeds killed was not less than 80%) | 5 (percentage of weeds killed was not less than 80%) | 3 (percentage of weeds killed was not less than 40% and less than 60%) | 5 (percentage of weeds killed was not less than 80%) | 4 (percentage of weeds killed was not less than 60% and less than 80%) | 5 (percentage of weeds killed was not less than 80%) | 3 (percentage of weeds killed was not less than 40% and less than 60%)
4 | COc1cc(Oc2cccc(C(F)(F)F)c2)nc(C(=O)NCC2CC2)c1 [Compound I-85] | 5 (percentage of weeds killed was not less than 80%) | 5 (percentage of weeds killed was not less than 80%) | 5 (percentage of weeds killed was not less than 80%) | 4 (percentage of weeds killed was not less than 60% and less than 80%) | 5 (percentage of weeds killed was not less than 80%) | 5 (percentage of weeds killed was not less than 80%) | 4 (percentage of weeds killed was not less than 60% and less than 80%) | 5 (percentage of weeds killed was not less than 80%) | 5 (percentage of weeds killed was not less than 80%) | 5 (percentage of weeds killed was not less than 80%) | 5 (percentage of weeds killed was not less than 80%)
5 | COc1cc(Oc2cccc(C(F)(F)F)c2)nc(C(=O)NN(C)C)c1 [Compound I-109] | 4 (percentage of weeds killed was not less than 60% and less than 80%) | 5 (percentage of weeds killed was not less than 80%) | 5 (percentage of weeds killed was not less than 80%) | 4 (percentage of weeds killed was not less than 60% and less than 80%) | 5 (percentage of weeds killed was not less than 80%) | 5 (percentage of weeds killed was not less than 80%) | 5 (percentage of weeds killed was not less than 80%) | 5 (percentage of weeds killed was not less than 80%) | 5 (percentage of weeds killed was not less than 80%) | 5 (percentage of weeds killed was not less than 80%) | 4 (percentage of weeds killed was not less than 60% and less than 80%)
6 | COc1cc(Oc2cccc(C(F)(F)F)c2)nc(C(=O)N2CCCC2)c1 [Compound I-302, 4-methoxy-2-{N-(pyrrolidinyl)carbonyl}-6-{3-(trifluoromethyl)phenoxy}pyridine] | 5 (percentage of weeds killed was not less than 80%) | 5 (percentage of weeds killed was not less than 80%) | 5 (percentage of weeds killed was not less than 80%) | 4 (percentage of weeds killed was not less than 60% and less than 80%) | 5 (percentage of weeds killed was not less than 80%) | 5 (percentage of weeds killed was not less than 80%) | 2 (percentage of weeds killed was not less than 20% and less than 40%) | 5 (percentage of weeds killed was not less than 80%) | 4 (percentage of weeds killed was not less than 60% and less than 80%) | 5 (percentage of weeds killed was not less than 80%) | 4 (percentage of weeds killed was not less than 60% and less than 80%)
7 | COc1cc(Oc2cccc(C(F)(F)F)c2)nc(C(=O)NOCC2CC2)c1 [Compound I-107] | 5 (percentage of weeds killed was not less than 80%) | 5 (percentage of weeds killed was not less than 80%) | 5 (percentage of weeds killed was not less than 80%) | 4 (percentage of weeds killed was not less than 60% and less than 80%) | 5 (percentage of weeds killed was not less than 80%) | 5 (percentage of weeds killed was not less than 80%) | 3 (percentage of weeds killed was not less than 40% and less than 60%) | 5 (percentage of weeds killed was not less than 80%) | 4 (percentage of weeds killed was not less than 60% and less than 80%) | 5 (percentage of weeds killed was not less than 80%) | 3 (percentage of weeds killed was not less than 40% and less than 60%)

Reference: US6339045B1, “N-(unsubstituted or substituted)-4-substituted-6-(unsubstituted or substituted)phenoxy-2-pyridinecarboxamides or thiocarboxamides, processes for producing the same, and herbicides” (Kureha Kagaku Kogyo Kabushiki Kaisha, priority 1995, dated 2002)
